Laboratory results taken from patent US20050158412A1, “Type II diabetes” (priority 2004, published 2005).

Target: T1, Aldose Reductase (Rattus norvegicus, UniProt P07943)
T1 construct: Aldose Reductase was isolated from Rat lens; from tissue; host or cells: rat lens
Experiment: Aldose Reductase enzyme assay
Format: biochemical
Conditions: Wistar rat lens enzyme
Method: Experiments were conducted to test the effects of Morinda citrifolia products on Aldose Reductase. Aldose Reductase is an enzyme that is highly expressed in the eye (lens) of diabetic patients. High expression of Aldose Reductase may lead to blindness. Quantitation of Aldose Redutase activity was achieved by utilizing DL-Glyceraldehyde as a substrate. DL-Glyceraldehyde reacts with NADPH to form NADP+. A spectrophotometer was utilized to quantitiate levels of NADPH. Aldose Reductase was isolated from Rat lens. Quercertin was utilized as a reference compound. Methods employed in this study were adapted from the scientific literature to maximize reliability and reproducibility. […] Biochemical assay results are presented as the percent inhibition of specific binding or activity throughout the report. All other results are expressed in terms of that assay's quantitation method. For primary assays, only the lowest concentration with a significant response judged by the assays' criteria, is shown in this summary.

SMILES: O=c1c(O)c(-c2ccc(O)c(O)c2)oc2cc(O)cc(O)c12 [Quercetin]
- % INH. Aldose Reductase (conc. 1%): 77%
- % INH. Aldose Reductase (conc. 5%): 77%
